From ChEMBL document CHEMBL1201862, “PubChem BioAssay data set” (2004)
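Protocol summary: plate cells (96-well), add compound at 5 concentrations, incubate 48 h, interpolate endpoints linearly. GI50 marks 50% less growth.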 The source made the active and inactive calls. Cut-off read from the data, not from the text of the source: active = GI50 up to about 1.1 µM and inactive = higher.

How the values were obtained:
Assay in all cases: NCI-60 cell line screen, 48 h
786-0 = tested on: 786-0
A498 = tested on: A498
A549 = tested on: A549
ACHN = tested on: ACHN
BT-549 = tested on: BT-549
CAKI-1 = tested on: CAKI-1
CCRF-CEM = tested on: CCRF-CEM
COLO 205 = tested on: COLO 205
DU-145 = tested on: DU-145
EKVX = tested on: EKVX
HCT-116 = tested on: HCT-116
HCT-15 = tested on: HCT-15
HL-60 = tested on: HL-60
HOP-62 = tested on: HOP-62
HOP-92 = tested on: HOP-92
HT-29 = tested on: HT-29
Hs-578T = tested on: Hs-578T
IGROV-1 = tested on: IGROV-1
KM12 = tested on: KM12
LOX IMVI = tested on: LOX IMVI
M14 = tested on: M14
MCF7 = tested on: MCF7
MDA-MB-231 = tested on: MDA-MB-231
MDA-MB-435 = tested on: MDA-MB-435
MDA-N = tested on: MDA-N
MOLT-4 = tested on: MOLT-4
Malme-3M = tested on: Malme-3M
NCI-H226 = tested on: NCI-H226
NCI-H23 = tested on: NCI-H23
NCI-H460 = tested on: NCI-H460
NCI-H522 = tested on: NCI-H522
NCI/ADR-RES = tested on: NCI/ADR-RES
OVCAR-3 = tested on: OVCAR-3
OVCAR-4 = tested on: OVCAR-4
OVCAR-5 = tested on: OVCAR-5
OVCAR-8 = tested on: OVCAR-8
PC-3 = tested on: PC-3
RPMI-8226 = tested on: RPMI-8226
RXF 393 = tested on: RXF 393
SF-268 = tested on: SF-268
SF-295 = tested on: SF-295
SF-539 = tested on: SF-539
SK-MEL-28 = tested on: SK-MEL-28
SK-MEL-2 = tested on: SK-MEL-2
SK-MEL-5 = tested on: SK-MEL-5
SK-OV-3 = tested on: SK-OV-3
SN12C = tested on: SN12C
SNB-19 = tested on: SNB-19
SR = tested on: SR
SW-620 = tested on: SW-620
T47D = tested on: T47D
TK-10 = tested on: TK-10
U-251 = tested on: U-251
UACC-257 = tested on: UACC-257
UACC-62 = tested on: UACC-62
UO-31 = tested on: UO-31
HCC 2998 = tested on: HCC 2998
K562 = tested on: K562
SNB-75 = tested on: SNB-75

SMILES: C=C1CC[C@@]2(C)[C@@H]([C@@H]1C)[C@H]1CC[C@@H]3[C@@]4(C)CC[C@H](O)C(C)(C)[C@@H]4CC[C@@]3(C)[C@]1(C)C[C@@H]2O
- GI50 (786-0): 2.7 µM (inactive)
- GI50 (A498): 2.16 µM (inactive)
- GI50 (A549): 2.05 µM (inactive)
- GI50 (ACHN): 2.11 µM (inactive)
- GI50 (BT-549): 10 µM (inactive)
- GI50 (CAKI-1): 2.42 µM (inactive)
- GI50 (CCRF-CEM): 5.83 µM (inactive)
- GI50 (COLO 205): 4.23 µM (inactive)
- GI50 (DU-145): 4.57 µM (inactive)
- GI50 (EKVX): 3 µM (inactive)
- GI50 (HCT-116): 2.99 µM (inactive)
- GI50 (HCT-15): 3.24 µM
- GI50 (HL-60): 1.53 µM (inactive)
- GI50 (HOP-62): 2.24 µM (inactive)
- GI50 (HOP-92): 1.99 µM (inactive)
- GI50 (HT-29): 3.9 µM (inactive)
- GI50 (Hs-578T): 2.69 µM (inactive)
- GI50 (IGROV-1): 2 µM (inactive)
- GI50 (KM12): 3.65 µM (inactive)
- GI50 (LOX IMVI): 1.99 µM (inactive)
- GI50 (M14): 4.66 µM (inactive)
- GI50 (MCF7): 2.13 µM (inactive)
- GI50 (MDA-MB-231): 1.96 µM (inactive)
- GI50 (MDA-MB-435): 4.22 µM (inactive)
- GI50 (MDA-N): 8.53 µM (inactive)
- GI50 (MOLT-4): 3.22 µM (inactive)
- GI50 (Malme-3M): 3.25 µM (inactive)
- GI50 (NCI-H226): 5 µM (inactive)
- GI50 (NCI-H23): 2.48 µM (inactive)
- GI50 (NCI-H460): 2.11 µM (inactive)
- GI50 (NCI-H522): 1.95 µM (inactive)
- GI50 (NCI/ADR-RES): 3.27 µM (inactive)
- GI50 (OVCAR-3): 2.37 µM (inactive)
- GI50 (OVCAR-4): 2.49 µM (inactive)
- GI50 (OVCAR-5): 4.25 µM (inactive)
- GI50 (OVCAR-8): 1.85 µM (inactive)
- GI50 (PC-3): 2.86 µM (inactive)
- GI50 (RPMI-8226): > 100 µM (inactive)
- GI50 (RXF 393): 1.77 µM (inactive)
- GI50 (SF-268): 2.28 µM (inactive)
- GI50 (SF-295): 3.49 µM (inactive)
- GI50 (SF-539): 2.45 µM (inactive)
- GI50 (SK-MEL-28): 4.12 µM (inactive)
- GI50 (SK-MEL-2): 3.67 µM (inactive)
- GI50 (SK-MEL-5): 5.16 µM (inactive)
- GI50 (SK-OV-3): 3.79 µM (inactive)
- GI50 (SN12C): 2.52 µM (inactive)
- GI50 (SNB-19): 2.32 µM (inactive)
- GI50 (SR): > 100 µM (inactive)
- GI50 (SW-620): 4.03 µM (inactive)
- GI50 (T47D): 2.55 µM (inactive)
- GI50 (TK-10): 5.62 µM (inactive)
- GI50 (U-251): 1.73 µM (inactive)
- GI50 (UACC-257): 8.07 µM (inactive)
- GI50 (UACC-62): 7.45 µM (inactive)
- GI50 (UO-31): 2.5 µM (inactive)

SMILES: CC(=O)N1c2ccccc2C(C)C1c1[nH]c2ccccc2c1C (centres undefined)
- GI50 (786-0): 19.9 µM (inactive)
- GI50 (A498): 22.7 µM (inactive)
- GI50 (A549): 23.4 µM (inactive)
- GI50 (ACHN): 32.3 µM (inactive)
- GI50 (BT-549): 22.5 µM (inactive)
- GI50 (CAKI-1): 22.8 µM (inactive)
- GI50 (CCRF-CEM): 25.6 µM (inactive)
- GI50 (COLO 205): 13.5 µM (inactive)
- GI50 (DU-145): 28.3 µM (inactive)
- GI50 (EKVX): 18.1 µM (inactive)
- GI50 (HCC 2998): 16.3 µM (inactive)
- GI50 (HCT-116): 16.5 µM (inactive)
- GI50 (HCT-15): 27.2 µM
- GI50 (HL-60): 18.6 µM (inactive)
- GI50 (HOP-62): 19.2 µM (inactive)
- GI50 (HT-29): 20.2 µM (inactive)
- GI50 (Hs-578T): 16.6 µM (inactive)
- GI50 (IGROV-1): 24.1 µM (inactive)
- GI50 (K562): 19.5 µM (inactive)
- GI50 (KM12): 16.1 µM (inactive)
- GI50 (LOX IMVI): 26.1 µM (inactive)
- GI50 (M14): 18.7 µM (inactive)
- GI50 (MCF7): 28.1 µM (inactive)
- GI50 (MDA-MB-231): 18.6 µM (inactive)
- GI50 (MDA-MB-435): 18.2 µM (inactive)
- GI50 (MDA-N): 19.9 µM (inactive)
- GI50 (MOLT-4): 19.7 µM (inactive)
- GI50 (Malme-3M): 39.7 µM (inactive)
- GI50 (NCI-H226): 25.3 µM (inactive)
- GI50 (NCI-H23): 23.8 µM (inactive)
- GI50 (NCI-H460): 19.3 µM (inactive)
- GI50 (NCI-H522): 15.9 µM (inactive)
- GI50 (NCI/ADR-RES): 24.1 µM (inactive)
- GI50 (OVCAR-3): 19.5 µM (inactive)
- GI50 (OVCAR-4): 23.4 µM (inactive)
- GI50 (OVCAR-5): 14.9 µM (inactive)
- GI50 (OVCAR-8): 20.8 µM (inactive)
- GI50 (PC-3): 31.3 µM (inactive)
- GI50 (RPMI-8226): 13 µM (inactive)
- GI50 (RXF 393): 13 µM (inactive)
- GI50 (SF-268): 23.4 µM (inactive)
- GI50 (SF-295): 15 µM (inactive)
- GI50 (SF-539): 11 µM (inactive)
- GI50 (SK-MEL-28): 20.3 µM (inactive)
- GI50 (SK-MEL-2): 17.7 µM (inactive)
- GI50 (SK-MEL-5): 13.7 µM (inactive)
- GI50 (SK-OV-3): 19.7 µM (inactive)
- GI50 (SN12C): 17.1 µM (inactive)
- GI50 (SNB-19): 31.6 µM (inactive)
- GI50 (SNB-75): 19.8 µM (inactive)
- GI50 (SR): 13.9 µM (inactive)
- GI50 (SW-620): 27.5 µM (inactive)
- GI50 (T47D): 18.8 µM (inactive)
- GI50 (TK-10): 22.8 µM (inactive)
- GI50 (U-251): 20.5 µM (inactive)
- GI50 (UACC-257): 18.1 µM (inactive)
- GI50 (UACC-62): 18.4 µM (inactive)
- GI50 (UO-31): 17.2 µM (inactive)
